Results: patent publication US20250325610A1, “Compositions Containing Cannabis and Hericium Extracts for the Improvement of Mental Health and Treatment of CNS Disorders” (DrinkBrez, LLC, priority 2024, published 2025)

Tested on: theta power
Experiment: EEG study on theta power modulation by THC and Lion's Mane extract (randomized, double-blind, crossover)
Format: in vivo, human
Conditions: for global theta power change: 16-node EEG, normalized theta power
Experimental: Participants: 10 healthy adults (18-45 years) in a randomized, double-blind, crossover trial.
Treatments: Baseline (placebo), Lion's Mane (2.2 g), THC (5 mg), THC+Lion's Mane.
Administration: Nanoemulsion beverages for rapid absorption.
EEG recordings: 16-node headset measured theta power at 0 min (baseline), 15 min, and 30 min.
Normalized theta power analyzed via mixed-effects ANOVA.
Topographic mapping for spatial changes.

With `CCCCCc1cc(O)c2c(c1)OC(C)(C)[C@@H]1CCC(C)=C[C@@H]21` [THC, Δ9-tetrahydrocannabinol] the “global theta power change” value (15 min after nanoemulsion beverage) was −8.9%, the “theta power change, frontal nodes F3, F7 and FC5” value (15 minutes) was −14.6% and the “global theta power change” value (30 min after nanoemulsion beverage) was 19.4%. For the same molecule, the “theta power change, frontal nodes” value (30 minutes) was 33.2% and the “theta power change, parietal (P3, P4) and occipital (O1, O2) nodes” value (nodes P3, P4, O1, O2) was 4-8%.
